In PubChem BioAssay (NCI):
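Five concentrations, 48 hours, 96-well plates. Abbreviation: GI50, concentration required for 50% inhibition of growth. TGI: concentration producing complete growth inhibition.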

How the values were obtained:
Test in all cases: NCI anticancer screen, dose series, 48 h
HOP-62 NSCLC = test system: HOP-62 NSCLC
M14 melanoma = test system: M14 melanoma
NCI-H460 lung = test system: NCI-H460 lung
OVCAR-3 ovarian = test system: OVCAR-3 ovarian
OVCAR-8 ovarian = test system: OVCAR-8 ovarian
SK-MEL-5 melanoma = test system: SK-MEL-5 melanoma
SNB-75 CNS = test system: SNB-75 CNS
SW-620 colon = test system: SW-620 colon
TK-10 renal = test system: TK-10 renal
RPMI-8226 leukemia = test system: RPMI-8226 leukemia

| Compound | TGI (HOP-62 NSCLC) | TGI (M14 melanoma) | TGI (NCI-H460 lung) | TGI (OVCAR-3 ovarian) | TGI (OVCAR-8 ovarian) | TGI (SK-MEL-5 melanoma) | TGI (SNB-75 CNS) | TGI (SW-620 colon) | TGI (TK-10 renal) | TGI (RPMI-8226 leukemia) | GI50 (HOP-62 NSCLC) | GI50 (NCI-H460 lung) | GI50 (OVCAR-3 ovarian) | GI50 (OVCAR-8 ovarian) | GI50 (SK-MEL-5 melanoma) | GI50 (SNB-75 CNS) | GI50 (SW-620 colon) | GI50 (TK-10 renal) | GI50 (M14 melanoma) | GI50 (RPMI-8226 leukemia) |
| --- | --- | --- | --- | --- | --- | --- | --- | --- | --- | --- | --- | --- | --- | --- | --- | --- | --- | --- | --- | --- |
| COc1cccc(C(=O)O)c1Cc1cccc2ccccc12 | > 100 µM | > 100 µM | > 100 µM | > 100 µM | > 100 µM | > 100 µM | > 100 µM | > 100 µM | > 100 µM | – | – | – | – | – | – | – | – | – | – | – |
| O=C1c2ccccc2C(=O)N1C/C=N/NS(=O)(=O)c1ccc(Cl)cc1 | > 100 µM | > 100 µM | > 100 µM | – | > 100 µM | > 100 µM | > 100 µM | > 100 µM | > 100 µM | > 100 µM | – | – | – | – | – | – | – | – | – | – |
| CN1C(=O)NC2(O)c3ccccc3C(=O)C12O (stereo unspecified) | – | > 100 µM | > 100 µM | > 100 µM | > 100 µM | – | > 100 µM | > 100 µM | > 100 µM | > 100 µM | – | – | – | – | – | – | – | – | – | – |
| CCCC(=O)C(CC)/C(CCC(=O)N(Cc1ccccc1)Cc1ccccc1)=N/NC(=O)C[N+](C)(C)C (stereo unspecified) | > 100 µM | > 100 µM | > 100 µM | > 100 µM | > 100 µM | > 100 µM | > 100 µM | > 100 µM | – | – | – | – | – | – | – | – | – | – | – | – |
| N#C/C(=C/c1cccs1)c1cccs1 | > 100 µM | – | > 100 µM | > 100 µM | > 100 µM | > 100 µM | > 100 µM | > 100 µM | > 100 µM | – | > 100 µM | > 100 µM | > 100 µM | > 100 µM | > 100 µM | > 100 µM | > 100 µM | > 100 µM | – | – |
| C=CCCC12CCCC(=O)C1Sc1ccc3ccccc3c12 (stereo unspecified) | 53.5 µM | 31.1 µM | – | 29 µM | > 100 µM | – | 82.9 µM | 58.6 µM | 51.2 µM | 42.9 µM | – | – | – | – | – | – | – | – | – | – |
| COc1cc2c(C#N)n3c(c2cc1OC)C(=O)C(c1ccccc1)Oc1ccccc1-3 (stereo unspecified) | > 100 µM | – | – | > 100 µM | > 100 µM | – | 24.6 µM | – | 21.3 µM | – | 3.64 µM | – | 4.48 µM | 2.76 µM | – | 4.39 µM | – | 3.35 µM | – | – |
| C=C(C)[C@@H]1CC[C@]2(C)[C@H](CC=C3[C@@H]4CC(C)(C)CC[C@]4(C(=O)OC)CC[C@]32C)[C@@]1(C)CC/C(N)=N/O | 20.6 µM | 3.86 µM | 4.03 µM | 3.18 µM | 6.29 µM | 3.23 µM | – | 4.32 µM | 18.6 µM | 6.57 µM | 4.44 µM | 1.89 µM | 1.67 µM | 2.27 µM | 1.77 µM | – | 1.88 µM | 3.66 µM | 1.78 µM | 1.95 µM |
| O=C(Oc1ccccc1Cl)c1cccnc1Nc1ccnc(C(F)(F)F)c1 | 37 µM | – | > 100 µM | 32.6 µM | 47 µM | 27 µM | – | 22.3 µM | 70.7 µM | 36.7 µM | 19 µM | 38.4 µM | 16.5 µM | 14.7 µM | 14 µM | – | 3.72 µM | 24.7 µM | – | 12.4 µM |
| COc1ncnc2c1ncn2C/C(Br)=C(\Br)CCl | 14.1 µM | 4.14 µM | – | 3.22 µM | 7.84 µM | 5.59 µM | 8.57 µM | – | 7.64 µM | 16.4 µM | 3.9 µM | – | 1.77 µM | 3.01 µM | 2.19 µM | 2.01 µM | – | 2.54 µM | 1.82 µM | 3.19 µM |
| COc1ccc2c(CCNS(=O)(=O)c3ccccc3)c(C(C)=O)[nH]c2c1[N+](=O)[O-] | > 100 µM | > 100 µM | > 100 µM | > 100 µM | > 100 µM | – | – | > 100 µM | – | > 100 µM | – | – | – | – | – | – | – | – | – | – |
| CC(C)(C)OC(=O)N(CCCn1c2c(c3ccccc3c1=O)C(=O)c1ccccc1-2)CCN(CCCn1c2c(c3ccccc3c1=O)C(=O)c1ccccc1-2)C(=O)OC(C)(C)C | > 50 µM | > 50 µM | > 50 µM | > 50 µM | > 50 µM | > 50 µM | – | > 50 µM | > 50 µM | > 50 µM | 19.8 µM | 27.3 µM | 13.2 µM | 24.6 µM | > 50 µM | – | 49.1 µM | > 50 µM | > 50 µM | 12.1 µM |
| Cn1c(-c2c(N)n(Cc3ccc(Cl)cc3)c3nc(C#N)c(C#N)nc23)nc2ccccc21 | > 50 µM | 42.6 µM | 25.7 µM | 6.2 µM | 23.4 µM | 16.5 µM | – | > 50 µM | 15.8 µM | > 50 µM | 11.7 µM | 2.7 µM | 1.37 µM | 5.37 µM | 5.24 µM | – | 5.26 µM | 6.9 µM | 10.6 µM | 1.73 µM |
